# Measured values reported in patent US4313943A, “7-Chloro-2,3-dihydro-5-phenyl-1-propargyl-1H-1,4-benzodiazepine-2-one, and a pharmaceutical composition thereof” (priority 1972, dated 1982).
# Where “and” joins values, the source holds several entries; their conditions need not be identical. Identical values can stand only once. Entries after “also recorded” stand apart in the source; their conditions may differ.
# Legend:
# [1] = Comparative tranquilizing effects: four plates test; assay type: in vivo
# Excerpt: The method utilized was the 4 plates test of J. R. Boissier, et al (European J. of Pharm. 1968, Vol. 4, pages 145-151).
# [2] = Reduction in motor activity between 60 and 90 minutes; assay type: in vivo; settings: for Reduction in Motor Activity Between 60 and 90 Minutes: significance NS (comp. 1), 0.002 (comp. 4)
# [3] = Rotarod test, equilibrium (Table 6); assay type: in vivo
# [4] = Emotional conditioning response (CER) in rats (Brady, Skinner box); assay type: in vivo
# Excerpt: The method utilized that was published by Brady (1956) using a Skinner Box and a combination of a sound, a light and an electrical shock to produce anxiety in the test animals.
# The more an animal is anxious, the less important is the score. When a test compound is a powerful anxiolytic, the value of the score is proportional to the dosage.
# [5] = Acute toxicity comparison (LD50, Litchfield and Wilcoxan); settings: in vivo; Table 11; oral; species not given
# Procedure: Toxicity in test animals to the test compounds in terms of LD50 after oral and intraperitoneal administration was determined according to the procedure of Litchfield and Wilcoxan (1949) and the hypnotic effect on test animals was determined in accordance with the method of Janssen (1959).
# [6] = Aggressive behavior elicited by foot shock; assay type: in vivo; settings: oral
# Excerpt: The aggressive behavior of test animals was elicited by a conventional foot shock procedure after administration of Compounds 1 and 4.
# [7] = Spontaneous mobility (Svenson and Thieme); assay type: in vivo; settings: po; read-out: oral ED50 (depressing spontaneous mobility)
# Procedure: Spontaneous mobility in test animals was determined by the Svenson and Thieme procedure as published in Psychopharmacologia, Vol. 14, 1969, pages 157 et seq.
# [8] = Conditioned avoidance response (shuttle box); assay type: in vivo; settings: for Number of Conditioned Avoidance Responses: CMC 1% 16.7 ± 0.3
# Procedure: Conditioned avoidance response by trained animals in a conventional shuttle box procedure was determined after oral administration of Compounds 1 and 4.
# [9] = Conditioned emotional response (CER), tone paired with foot shock; assay type: in vivo
# Procedure: Conditioned emotional response (CER) in test animals was conventionally determined by a tone paired with a foot shock which was presented to hungry animals trained to press a lever for intermittent food reinforcement. After a few such pairings, the presence of the tone alone was sufficient to disrupt the lever pressing behavior. CER is considered a model of behavior anxiety in animals. […] Thus, a 1.25 mg/kg os of compounds 1 and 4 respectively produced about a 350 and 630% increase in CER while a 5 mg/kg os of compounds 1 and 4 respectively produced about 920 and 1600% increase.
# [10] = ECoG and sedation in test animals free to move; assay type: in vivo
# Procedure: Some test animals were kept in restraint cases placed in a relatively soundproof room and some were left free to move in metal cases measuring 40×50×30 cm, which were also kept in a relatively quiet environment.
# In the test animals which were free to move, the first signs of sedation produced by the intragastric administration of 7.5 mg/kg of compounds 1 and 4 appeared, respectively, at 16 minutes (compound 1) and at 8 minutes (compound 4). […] The duration of the effect was, however, shorter, not exceeding 3 hours under these conditions in contrast to the 5 hour minimum for restricted animals.
# [11] = Electrogenesis of various subcortical centers; assay type: in vivo
# Procedure: This study was conducted with test animals weighing between 2.6 and 2.8 kg, following the stereotaxic method of Monnier and Gangloff (Atlas et techniques stereotaxique pour le cerveau du lopin eveille, 1961, Elsevier Pub. Co.), permitting the stimulation of certain subcortical structures as well as a simultaneous detection and recording of their electrical activities, which were compared to that of reference cortical electrodes. In this study, the subcortical centers considered were the caudate nucleus, the dorsal hippocampus, the lateral thalamus, the mesenephalic reticular formation, and the hypothalamic reticular formation. Test compounds 1 and 4 were administered by the intragastric route with an identical dose of 7.5 mg/kg.
# Spontaneous activity in the subcortical centers of the unanesthetized animals is characterized by desynchronized activity consisting of high amplitude and relatively slow rhythms (4 to 5 c/sec.), alternating with low amplitude rapid rhythms (12 to 13 c/sec.). Tracings from the hippocampus and caudate nucleus sometimes takes the form of bursts, which is less commonly the case from the thalamus. These may occur at the same time as bursts of rapid spikes arising from the frontal cortex. During periods of arousal, this desynchronized activity is followed by a synchronized theta rhythm (7 to 8 c/sec.) from the hippocampus and caudate nucleus and from the median thalamus, whereas the cortical and reticular electrical activities are transformed into ultra-rapid and low voltage rhythms (30μ volts).
# [12] = tested on: dorsal hippocampus; experiment: Hippocampal after-discharge (stimulation of dorsal hippocampus); assay type: in vivo; settings: 7.5 mg/kg intragastric; for Duration of Hippocampal After-Discharge: individual animals
# Procedure: The test animals for this study were also prepared according to the technique described by Monnier and Gangloff (infra B, page 30) and the animals were kept in restraint cages in a relatively soundproof room.
# The activity of test compounds 1 and 4 was assessed in identical groups of test animals for each compound, with identical numbers of animals for hippocampal after-discharges and for amygdaloid after-discharges. A dose of 7.5 mg/kg of each test compound was adminstered by the intragastric route. In each animal, after-discharges were triggered every 45 minutes after the administration of a test compound.
# The stimulation consisted of a series of waves with a duration of 3 m sec., delivered at a frequency of 40 c/sec., with 5 seconds as the total duration of the stimulation. The shocks were delivered by a Neurovar neurostimulator (Alvar Electronic), coupled to a CRC cathode oscilloscope (type OC 343). Cerebral electric activity was recorded by REEGA MINI HUIT electroencephalograph (Alvar Electronic).
# [13] = 7.5 mg/kg intragastric, animals free to move
compound,measurement,setting,value
"C#CCN1C(=O)CN=C(c2ccccc2Cl)c2cc(Cl)ccc21 [Compound 4, 7-chloro-2,3-dihydro-5-(2-chlorophenyl)-1-propargyl-1,H-1,4-benzodiazepine-2-one]",ED50,"[1]; 1 h, 60 min. after administration, doses between 0.5 and 4 mg/kg, confidence limits for P = 0.05",5.5 mg/kg
same,Duration of effect,[1]; compounds 1 and 4 compared,comparable
same,usability of 4 plates test,[1]; over 3 mg/kg,caused motor activity to be so reduced that 4 plates test
same,Reduction in Motor Activity Between 60 and 90 Minutes,[2]; 1 mg/kg,-69%
same,Reduction in Motor Activity Between 60 and 90 Minutes,[2]; 3 mg/kg,-82%
same,changes in motor activity / voluntary motility,[2]; in vivo,reduces voluntary motility
same,Rotarod Test % of Animals With Unchanged Equilibrium,[3]; 1 mg/kg,50.0%
same,Rotarod Test % of Animals With Unchanged Equilibrium,[3]; 3 mg/kg,8.3%
same,changes in equilibrium / motor coordination,[3]; in vivo,degradation of motor coordination
same,"Number of Responses, After - CER",[4]; 1.25 mg/kg/os,86.43 ± 22.13
same,"Number of Responses, Before - CER",[4]; 1.25 mg/kg/os,81.28 ± 16.17
same,"Number of Responses, CER",[4]; 1.25 mg/kg/os,26.25 ± 4.57
same,"Number of Responses, After - CER",[4]; 2.5 mg/kg/os,79.75 ± 15.24
same,"Number of Responses, Before - CER",[4]; 2.5 mg/kg/os,66.75 ± 11.80
same,"Number of Responses, CER",[4]; 2.5 mg/kg/os,31.12 ± 6.54
same,"Number of Responses, After - CER",[4]; 5 mg/kg/os,79.00 ± 20.03
same,"Number of Responses, Before - CER",[4]; 5 mg/kg/os,65.00 ± 14.89
same,"Number of Responses, CER",[4]; 5 mg/kg/os,38.37 ± 8.76
same,LD50,[5],> 5000 mg/kg
same,ED50,[6],2.7 mg/kg
same,ED50,[7],20.1 mg/kg
same,% Decrease (conditioned avoidance responses),[8]; 5 mg/kg oral,-44%
same,Number of Conditioned Avoidance Responses,[8]; 5 mg/kg oral,9.2 ± 1.4
same,% Decrease (conditioned avoidance responses),[8]; 10 mg/kg oral,-85%
same,Number of Conditioned Avoidance Responses,[8]; 10 mg/kg oral,2.5 ± 1.5
same,increase in CER,[9]; 1.25 mg/kg os,~630%
same,increase in CER,[9]; 5 mg/kg os,~1600%
same,duration of the ECoG effect,[10]; [13],≤ 3 h
same,first signs of sedation,[10]; [13],8 min
same,duration of ECoG effects (three compounds compared),"[10]; unrestricted animals, compound 3 at 10 mg/kg",about 31/2
same,caudate nucleus spikes,[11]; 7.5 mg/kg intragastric,less distinguishable
same,duration of slowing of mesencephalic and hypothalamic reticular formation activity,[11]; 7.5 mg/kg intragastric,≥ 135 min
same,thalamic rhythms,[11]; 7.5 mg/kg intragastric,greater amplitude and lower frequency
same,EEG activity of the hippocampus,[11]; in vivo,slow and of high amplitude; also recorded: increase the amplitude of these activities and also reduce their frequency
same,effect on duration of hippocampal after-discharge,[12],no apparent effect on the duration of the paroxysm
same,Duration of Hippocampal After-Discharge,[12]; 45 Mins.,10 s and 20 s and 18 s and 14 s and 12 s
same,Duration of Hippocampal After-Discharge,[12]; 90 Mins.,7 s and 16 s and 20 s and 15 s and 11 s
same,Duration of Hippocampal After-Discharge,[12]; 135 Mins.,6 s and 15 s and 17.5 s and 13.5 s and 14 s
same,Duration of Hippocampal After-Discharge,[12]; 180 Mins.,8 s and 10.5 s and 18 s and 15 s
same,Duration of Hippocampal After-Discharge,[12]; 225 Mins.,9 s and 19 s and 18.5 s and 13 s and 10 s
same,Duration of Hippocampal After-Discharge,[12]; 270 Mins.,10 s and 22 s and 27 s and 13 s and 16 s
